Measured values as given in patent US8344017B2, “Anti-hepatitis C virus agents and anti-HIV agents” (Mitsubishi Corporation, priority 2003, dated 2013).
Values after ≈ are worked out from the molar mass of the structure shown. Like-named read-outs stand apart in the source and are kept apart here.

How the values were obtained:
[1] = molecular target: HIV reverse transcriptase (Human immunodeficiency virus type 1 group M subtype B, UniProt P03366); experiment: HIV reverse transcriptase inhibitory activity (32P-dTTP incorporation); type: biochemical; details: 1 hour at 37° C., pH 8.3
Experimental: The experiment was performed as follows in 50 mM Tris-HCl buffer (pH 8.3); to 10 μL of a reaction solution which had been prepared so as to contain 30 mM NaCl, 10 mM MgCl, 2.5 mM DTT, 1.25 μg/mL poly(rA). oligo(dT) 12-18, 250 nM dTTP, ^32P-dTTP (800 μCi/mmol), 1 μl of a sample dissolved in DMSO, 1 μl of HIV reverse transcriptase (0.01 U/mL) were added, and the total volume was made up to 20 μl. After the solution was incubated for 1 hour at 37° C., 10 μl of the reaction solution was placed on a Whatman DE81 filter, which was washed three times with Na2HPO4, once with 70% ethanol and once with ethanol. The dried filter was placed in a vial, and the radioactivity was counted by the liquid scintillation measurement method, which was assigned to the HIV reverse transcriptase activity.

[2] = molecular target: T1, RNA polymerase of hepatitis C virus (Hepatitis C virus genotype 1a, UniProt P27958); experiment: RNA polymerase activity of hepatitis C virus, inhibitory activity; type: biochemical
T1 construct: measuring RNA polymerase activity of hepatitis C virus
From the text: (1) By using an experimental system for measuring RNA polymerase activity of hepatitis C virus (D. Dhanak et al., J. Biol. Chem., 277, 38322-[…] (2002)), its inhibitory activity was examined.
With regard to the foregoing compound 2, major regioisomers were separated and purified, however, with regard to others, bioactivities were investigated using mixtures.

S. eidermidis ATCC 14990 = experiment: Antimicrobial activity, MIC; type: cell-based
Experimental: (§1) Each fullerene derivative or the like was dissolved in DMSO, then added to the culture medium of bacteria. Vancomycin is an antimicrobial agent used for drug resistant bacteria (Methicillin resistant strains, MRSA) which has been in trouble now. […] Among the regioisomers of the compound 2, 2t-2, 2t-3 and 2t-4, differences in the effects are observed in some degree depending on bacteria, however, there are no significant differences, and they have an antimicrobial activity substantially equivalent to that of vancomycin, and are also effective for MRSA. Furthermore, worthy of special mention is the fact that these fullerene derivatives and the like show an effective antimicrobial activity against also vancomycin-resistant bacteria (VRE). […] At present, vancomycin-resistant bacteria began to emerge, therefore, the compound 2 is expected to exert an effect on these.

S. aureus M133 (MRSA) = experiment: Antimicrobial activity, MIC; type: cell-based
Experimental: as §1

E. hirae ATCC 8043 = experiment: Antimicrobial activity, MIC; type: cell-based
Experimental: as §1

E. faecalis W-73 = experiment: Antimicrobial activity, MIC; type: cell-based
Experimental: as §1

E. faecium vanA (VRE) = experiment: Antimicrobial activity, MIC; type: cell-based
Experimental: as §1

S. aureus 209P JC-1 = experiment: Antimicrobial activity, MIC; type: cell-based
Experimental: as §1

[3] = tested on: E. faecalis NCTC 12201 (VRE); experiment: Antimicrobial activity, MIC; type: cell-based
Experimental: as §1

S. aureus M126 (MRSA) = experiment: Antimicrobial activity, MIC; type: cell-based
Experimental: as §1

T1 sequence (P27958 2421-3011): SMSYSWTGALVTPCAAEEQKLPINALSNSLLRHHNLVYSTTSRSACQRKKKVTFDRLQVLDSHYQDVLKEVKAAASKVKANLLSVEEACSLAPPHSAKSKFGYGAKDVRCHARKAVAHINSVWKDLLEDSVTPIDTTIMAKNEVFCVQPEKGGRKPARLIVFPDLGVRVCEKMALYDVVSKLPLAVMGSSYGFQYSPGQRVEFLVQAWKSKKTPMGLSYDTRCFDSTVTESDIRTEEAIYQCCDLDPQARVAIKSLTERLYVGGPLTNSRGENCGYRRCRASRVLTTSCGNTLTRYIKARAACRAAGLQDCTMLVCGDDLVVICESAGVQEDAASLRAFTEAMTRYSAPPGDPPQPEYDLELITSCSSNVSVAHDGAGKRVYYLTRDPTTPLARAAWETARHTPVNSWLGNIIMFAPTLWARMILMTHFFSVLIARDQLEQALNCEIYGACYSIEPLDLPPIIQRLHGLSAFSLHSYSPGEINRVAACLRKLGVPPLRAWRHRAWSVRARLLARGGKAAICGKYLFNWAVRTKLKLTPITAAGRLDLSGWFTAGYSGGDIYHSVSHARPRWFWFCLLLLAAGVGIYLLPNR

Compound `CN1CC23c4c5c6c7c8c9c(c%10c%11c2c2c4c4c%12c5c5c6c6c8c8c%13c9c9c%10c%10c%11c%11c2c2c4c4c%12c%12c5c5c6c8c6c8c%13c9c9c%10c%10c%11c2c2c4c4c%12c5c6c5c8c9c%10c2c45)C73C1c1ccc[n+](C)c1` (stereo not shown) [compound 12] has an IC50 [1] of 5200 nM.

In the case of `O=C(O)CN1CC23c4c5c6c7c8c9c(c%10c%11c2c2c4c4c%12c5c5c6c6c8c8c%13c9c9c%10c%10c%11c%11c2c2c4c4c%12c%12c5c5c6c8c6c8c%13c9c9c%10c%10c%11c2c2c4c4c%12c5c6c5c8c9c%10c2c45)C73C1C(=O)O` (stereo not shown) [compound 10], the IC50 [1] is reported as 1000 nM.

In the case of `O=C(O)CN1C(C(=O)O)C23c4c5c6c7c8c9c(c%10c%11c2c2c4c4c%12c5c5c6c6c8c8c%13c9c9c%10c%10c%11c%11c2c2c4c4c%12c%12c5c5c6c8c6c8c%13c9c9c%10c%10c%11c2c2c4c4c%12c5c6c5c8c9c%10c2c45)C73C1C(=O)O` (stereo not shown) [compound 8], the IC50 [1] is reported as 29 nM and the IC50 [2] is reported as 2000 nM.

“C60-bis(N,N-dimethyl-2-hexylpyyrolidinium iodido) [compound 4]” was tested, and the IC50 [1] was 800 nM, the MIC (S. eidermidis ATCC 14990; S. eidermidis ATCC 14990) was 12500 µg/mL and the MIC (S. aureus M133 (MRSA); S. aureus M133 (MRSA)) was 12500 µg/mL. The MIC (E. hirae ATCC 8043; E. hirae ATCC 8043) was 25000 µg/mL, the MIC (E. faecalis W-73) was 50000 µg/mL and the MIC (E. faecium vanA (VRE)) was 12500 µg/mL. It also gave an MIC (S. aureus 209P JC-1; S. aureus 209P JC-1) of 6250 µg/mL, an MIC [3] of 25000 µg/mL and an MIC (S. aureus M126 (MRSA); S. aureus M126 (MRSA)) of 12500 µg/mL.

Compound `CN[C@H](CC(C)C)C(=O)N[C@H]1C(=O)N[C@@H](CC(N)=O)C(=O)N[C@H]2C(=O)N[C@H]3C(=O)N[C@H](C(=O)N[C@H](C(=O)O)c4cc(O)cc(O)c4-c4cc3ccc4O)[C@H](O)c3ccc(c(Cl)c3)Oc3cc2cc(c3O[C@@H]2O[C@H](CO)[C@@H](O)[C@H](O)[C@H]2O[C@H]2C[C@](C)(N)[C@H](O)[C@H](C)O2)Oc2ccc(cc2Cl)[C@H]1O` [VCM, vancomycin, reference compound] has an MIC (S. eidermidis ATCC 14990) of 3120 µg/mL (≈ 2150 µM), an MIC (S. aureus M133 (MRSA); Staphylococcus aureus, MRSA) of 1560 µg/mL (≈ 1080 µM) and an MIC (E. hirae ATCC 8043; Enterococcus hirae, ATCC8043) of 3120 µg/mL (≈ 2150 µM). For the same compound, the MIC (S. aureus 209P JC-1; Staphylococcus aureus, 209P) was 1560 µg/mL (≈ 1080 µM) and the MIC (S. aureus M126 (MRSA); Staphylococcus aureus, MRSA) was 1560 µg/mL (≈ 1080 µM).

Compound `C[N+]1(C)CC23c4c5c6c7c8c9c(c%10c%11c2c2c4c4c%12c5c5c6c6c8c8c%13c9c9c%10c%10c%11c%11c2c2c4c4c%12c%12c5c5c6c8c6c8c%13c9c9c%10c%10c%11c2c2c4c4c%12c5c6c5c8c9c%10c2c45)C73C1` (stereo not shown) [compound 9] has an IC50 [1] of 1600 nM.
